Test results from patent US4242329A, “Bradykinin-inhibiting tripeptide derivatives” (AB Kabi, priority 1978, dated 1980).
Non-standard residues stand in square brackets, D forms with d. Residues, ends and D or L forms follow the SMILES beside them.

System: isolated rat uterus
Assay: Bradykinin-inhibiting activity on isolated rat uterus (contraction at ED70 of bradykinin)
Format: cell-based
Settings: for Inhibition of bradykinin effect, %: against ED70 of bradykinin, isolated rat uterus; for Duration of inhibition: time until bradykinin again gives the original contraction
Procedure: The bradykinin-inhibiting activity of the new tripeptide derivatives is evident from the following disclosure of the biological evaluation on isolated organs. The bradykinin-inhibiting activity is studied on isolated rat uterus. The rats are pretreated subcutanous with 0.2 mg/kg of diethyl stilbestrol, 12-15 hours prior to the experiment. The muscle from uterus which is longitudinally sectioned into halves is arranged in a smooth muscle bath with de Jalon's buffer (de Jalon et al., Farmacother.Acta, Vol. 3, p. 313, 1945), oxygenated with carbogene gas (5% carbon dioxide, 95% oxygen). The temperature is maintained at 35° C. The muscle is stretched with a tension corresponding to 0.5 g. The isometric tension is measured with Grass (FT 03C) force transmitter connected to a Grass polygraph.
Muscle contractions for bradykinin in bath concentrations of 10^-11 -10^-6 M (mole/liter) are registrated, and thereafter the concentration of bradykinin which induces 70% of maximum muscle contraction (ED70) is evaluated. The bradykinin inhibiting activity is then tested with the tripeptide derivatives in bath concentrations of 10^-8, 10^-7, 10^-6 and 10^-5 M, against the ED70 for bradykinin of resp. muscle. For each concentration the tripeptide derivatives are incubated with the uterus tissue 5 and 10 minutes resp. before the addition of bradykinin. The bradykinin-inhibiting activity is expressed as the time in minutes required until bradykinin again gives the original contraction. Each addition of bradykinin is followed by washing with the buffer.

[1] = conc. in test bath 10^-5 mole/liter
[2] = conc. in test bath 10^-6 mole/liter
[3] = conc. in test bath 10^-7 mole/liter
[4] = conc. in test bath 10^-8 mole/liter

| SMILES | Inhibition of bradykinin effect, % [1] | Duration of inhibition [1] | Inhibition of bradykinin effect, % [2] | Duration of inhibition [2] | Inhibition of bradykinin effect, % [3] | Duration of inhibition [3] | Inhibition of bradykinin effect, % [4] | Duration of inhibition [4] |
| --- | --- | --- | --- | --- | --- | --- | --- | --- |
| CCCCCCCOC(=O)[C@H](CCCNC(=N)N)NC(=O)[C@H](Cc1ccccc1)NC(=O)[C@H]1CCCN1 [Example I, H-D-Pro-Phe-Arg-O-heptyl] | 100% | 35 min | 100% | 15 min | 10% | 15 min | 10% | 15 min |
| CCCCCCCNC(=O)[C@H](CCCNC(=N)N)NC(=O)[C@H](Cc1ccccc1)NC(=O)[C@H]1CCCN1 [Example II, H-D-Pro-Phe-Arg-NH-heptyl] | 100% | 45 min | 100% | 30 min | 15% | 20 min | 15% | 15 min |
| N=C(N)NCCC[C@H](NC(=O)[C@H](Cc1ccccc1)NC(=O)[C@H]1CCCN1)C(N)=O [Example III, H-D-Pro-Phe-Arg-NH2] (H-[dP]-Phe-Arg-NH2) | 100% | 50 min | 100% | 30 min | 15% | 15 min | 15% | 15 min |
